Target: T1, αVβ3 (Homo sapiens, UniProt P05106+P06756)
T1 construct: purchased R & D 3050-AV
Experiment: Human αVβ3 solid phase assay (fibrinogen binding to coated αVβ3)
Conditions: αVβ3 coated plates, fibrinogen as ligand
Protocol: The following assay was conducted to assess αVβ3 binding affinity of the αVβ3-targeted compounds of this invention.
Human αVβ3 solid phase assay:
Immuno 96-well Plates (NUNC, Part#439454) were coated with αVβ3 (R & D, Cat#3050-AV) by adding 100 uL of αVβ3 (lx) to each well and incubating the plates overnight at […]. Buffer used was Buffer A: 20 mM Tris, 150 mM NaCl, 1 mM CaCl2, 1 mM MgCl2, pH7.4. After removal of the coating reagent, 150 uL of 3.5% BSA in Buffer A was added to each well to block the plates for 105 minutes at […]. After blocking, plates were washed 5 times with 200 uL of Buffer B (Buffer A+1 mM MnC12). 50 uL of test compound solution (2×) in 5% DMSO and 50 uL of fibrinogen (2×) (Innovative Research, Cat# IFIB) were then added to each well. Plates were shaken for 2 minutes, and then incubated for 2 hours for 370 C. After the plates were washed 5 times with 200 uL of Buffer B, the 1st antibody rabbit anti-human fibrinogen (Innovative Research, Cat IASHFBGN-GF) in the amount of 100 uL/well, and the 2nd antibody Goat anti-rabbit IgG Horse-radish peroxidase conjugate (Invitrogen, Cat#G21234) in the amount of 50 uL/well were added to plates, respectively. […] After being added 100 uL/well Stop Buffer (1.0 M Phosphoric Acid […]), plates were read on Envision at Absorbance mode 450 nm.

T1 sequence (P06756 31-992 limits assumed): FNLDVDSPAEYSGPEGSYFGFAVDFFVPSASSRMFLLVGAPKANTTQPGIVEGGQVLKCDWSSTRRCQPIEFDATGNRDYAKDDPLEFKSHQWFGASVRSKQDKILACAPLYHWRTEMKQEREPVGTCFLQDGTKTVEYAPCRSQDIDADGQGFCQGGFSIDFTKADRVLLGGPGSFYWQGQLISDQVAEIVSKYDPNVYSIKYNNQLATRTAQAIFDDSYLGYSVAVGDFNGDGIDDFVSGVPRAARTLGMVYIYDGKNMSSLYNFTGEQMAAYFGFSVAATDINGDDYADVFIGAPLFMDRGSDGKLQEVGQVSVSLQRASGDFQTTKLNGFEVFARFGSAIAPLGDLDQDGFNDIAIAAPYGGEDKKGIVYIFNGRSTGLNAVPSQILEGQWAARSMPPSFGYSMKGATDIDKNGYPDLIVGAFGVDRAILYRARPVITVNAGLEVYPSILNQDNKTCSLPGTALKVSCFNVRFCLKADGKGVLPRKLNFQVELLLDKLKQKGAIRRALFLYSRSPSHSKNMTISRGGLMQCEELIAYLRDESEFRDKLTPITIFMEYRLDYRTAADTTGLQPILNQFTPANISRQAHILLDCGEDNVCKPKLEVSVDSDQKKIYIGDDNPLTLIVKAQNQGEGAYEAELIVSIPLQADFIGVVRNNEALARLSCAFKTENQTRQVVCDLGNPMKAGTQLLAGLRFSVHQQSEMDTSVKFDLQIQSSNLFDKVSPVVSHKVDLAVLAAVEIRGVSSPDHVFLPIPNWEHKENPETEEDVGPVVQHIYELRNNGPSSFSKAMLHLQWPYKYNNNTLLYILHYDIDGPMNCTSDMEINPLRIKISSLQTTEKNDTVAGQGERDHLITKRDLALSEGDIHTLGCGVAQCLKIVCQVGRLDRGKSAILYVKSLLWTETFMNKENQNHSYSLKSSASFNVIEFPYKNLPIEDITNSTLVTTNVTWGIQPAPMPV
T1 sequence (P05106 27-718 limits assumed): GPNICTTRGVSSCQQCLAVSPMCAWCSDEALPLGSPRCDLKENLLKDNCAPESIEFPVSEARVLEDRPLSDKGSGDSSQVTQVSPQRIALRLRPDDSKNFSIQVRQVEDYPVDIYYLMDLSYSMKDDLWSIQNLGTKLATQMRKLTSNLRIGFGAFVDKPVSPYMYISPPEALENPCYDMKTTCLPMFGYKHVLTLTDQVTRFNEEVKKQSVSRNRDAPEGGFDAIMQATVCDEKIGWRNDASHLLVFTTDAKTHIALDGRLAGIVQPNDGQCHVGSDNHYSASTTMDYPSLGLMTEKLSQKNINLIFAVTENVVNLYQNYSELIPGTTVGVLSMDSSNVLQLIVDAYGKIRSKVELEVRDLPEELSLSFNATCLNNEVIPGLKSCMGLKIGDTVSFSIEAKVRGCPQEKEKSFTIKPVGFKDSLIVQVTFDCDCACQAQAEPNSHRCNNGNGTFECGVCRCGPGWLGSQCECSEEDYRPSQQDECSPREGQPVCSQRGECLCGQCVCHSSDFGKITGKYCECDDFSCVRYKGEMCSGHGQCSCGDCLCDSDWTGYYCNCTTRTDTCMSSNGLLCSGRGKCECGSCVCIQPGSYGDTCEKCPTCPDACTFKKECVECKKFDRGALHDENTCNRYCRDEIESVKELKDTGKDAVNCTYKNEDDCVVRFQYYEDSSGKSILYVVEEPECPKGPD

Question: COc1ccc(NC(=O)[C@H](CC(=O)O)NC(=O)CNC(=O)c2cccc(N=C(N)N)c2)cc1 [compound 141] was tested. Which IC50 did it give?
Answer: The IC50 was roughly 2 nM.

From patent US9586916B2, “Integrin antagonist conjugates for targeted delivery to cells expressing alpha-V-beta-3” (Hoffmann-La Roche Inc., priority 2012, dated 2017)
